Laboratory results published in patent publication US20210347709A1, “RADIOFLUORINATED GPC3-BINDING PEPTIDES FOR PET IMAGING OF HEPATOCELLULAR CARCINOMA” (University of Southern California, priority 2020, published 2021).
Read-outs that look alike come from different tables or passages of the source.

Columns and labels:
[1] = Measurement of lipophilicity (Log P), 1-octanol/PBS partition; format: physicochemical; conditions: 1-octanol / PBS pH 7.4, mean ± SD, n = 4
Protocol: Measurement of Lipophilicity (Log P). Approximately 185 kBq of Al[^18F]F-GP2076 or Al[^18F]F-GP2633 in 0.5 ml of phosphate-buffered saline (PBS) (pH 7.4) was mixed with 0.5 ml of 1-octanol. The mixture was vigorously shaken for 1 min, and then centrifuged at 12,000 rpm for 5 min to partition the organic and aqueous layers. Aliquots of 0.2 ml each layer were taken and the radioactivity was determined by gamma counting (GC-1200, USTC Chuangxin Co. Ltd. Zonkia Branch, China). The distribution coefficient P was calculated as the ratio of radioactivity in the organic phase to that in the aqueous phase. The experiment was carried out in quadruplicate.

[2] = MicroPET/CT imaging and biodistribution, HepG2 tumor model; format: in vivo, nude mice; conditions: both sexes, BALB/c nude, mouse, iv, 5.55 MBq, total radioactivity; for tissue to tissue ratio at 1 h / tissue to tissue ratio at 0.5 h / tissue to tissue ratio at 2 h: HepG2 (GPC3+) tumor bearing mice; for tissue to tissue ratio at 1 h / tissue uptake at 1 h: 60 min; for tissue to tissue ratio at 0.5 h / tissue uptake at 0.5 h: 30 min; for tissue to tissue ratio at 2 h / tissue uptake at 2 h: 120 min; for tissue uptake at 0.5 h / tissue uptake at 1 h / tissue uptake at 2 h: HepG2 (GPC3+) tumor model, PET
Protocol: (§1) MicroPET/CT Imaging and Biodistribution. MicroPET/CT scans were carried out using a Siemens Inveon PET/CT scanner (Siemens, Germany). Tumor-bearing mice (n=3/group) were intravenously injected with 5.55 MBq of Al[^18F]F-GP2076 or Al[^18F]F-GP2633 under isoflurane anesthesia. A ten-minute static PET scan for each animal was acquired at 30, 60, and 120 min after the injection. 3-Dimensional ordered subset expectation maximization (3D-OSEM) algorithm was used for the PET reconstruction, and CT was applied for attenuation correction. Detailed procedures for the microPET/CT imaging and biodistribution are provided in ESM.
(§2) All animal experiments were conducted according to the guideline of the Nanfang Hospital Animal Ethics Committee at the Southern Medical University. Male or female BALB/c nude mice (about 4-6 weeks old) were obtained from the Laboratory Animal Center at Southern Medical University. The HepG2 and McA-RH7777 HCC xenografts were established by subcutaneous injection of 1×10^6 tumor cells into the left shoulder of nude mice. The animals were used for in vivo studies when the tumors reached a size of 0.5-1 cm in diameter (4-6 weeks after inoculation).
(§3) Inveon Research Workplace (IRW) 3.0 software (Siemens, Germany) was used to measure the regions of interest (ROIs) determined by superimposing the ellipsoid volume of interest (VOI) on the target tissues. The radioactivity concentrations were measured by the mean pixel intensity within each VOI and converted to dose/ml using a calibration constant. Assuming the tissue density of 1 g/ml, the ROI was then converted to dose per gram and normalized as the percent injected dose per gram (% ID/g). Tumor-to-nontarget uptake ratios, including tumor-to-muscle (T/M), tumor-to-liver (T/L), and tumor-to-kidneys (T/K) ratios, were calculated by dividing the radioactivity uptake in tumor by that in the corresponding normal tissue or organ.

[3] = system: GPC3-positive HepG2 tumor; assay: as above; format: in vivo, nude mice; conditions: for Tumor-to-kidneys (T/K) uptake ratio / Tumor-to-liver (T/L) uptake ratio / Tumor-to-muscle (T/M) uptake ratio: HepG2 (GPC3+) tumor bearing mice; for Kidneys uptake / Liver uptake / Tumor uptake: HepG2 (GPC3+) tumor model; for Tumor uptake: decay-corrected
Protocol: as §1, §2, §3

[4] = Ex vivo biodistribution in HepG2 tumor bearing nude mice; conditions: both sexes, BALB/c nude, mouse, iv, 1.85 MBq, total radioactivity, 1 h post-injection, gamma counting
Protocol: as §2
(§4) Ex vivo biodistribution was evaluated at 60 min after the tail vein injection of 1.85 MBq of Al[^18F]F-GP2076 or Al[^18F]F-GP2633. Mice were euthanized and dissected. Major tissues and organs were collected and weighed wet. The radioactivity in the tissues and organs was measured using a gamma counter. The results were presented as % ID/g. For each animal, the radioactivity of the tissue and organ samples was calibrated with a known aliquot of the injected activity. Mean uptake (% ID/g) for a group of animals was calculated with standard deviations.

HepG2 tumor = assay: as above; conditions: 1 h post-injection, gamma counting
Protocol: as §2, §4

[5] = HepG2 tumor / liver, read-out: Tumor-to-liver (T/L) uptake ratio
[6] = HepG2 tumor / muscle, read-out: Tumor-to-muscle (T/M) uptake ratio
[7] = intestine, read-out: Intestinal uptake
[8] = decay-corrected, read-out: Tumor uptake
[9] = kidneys, read-out: Kidneys uptake
[10] = muscle, read-out: Muscle uptake
[11] = tumor / kidneys, read-out: Tumor-to-kidneys (T/K) uptake ratio

CC(C)C[C@H](NC(=O)[C@H](CCCNC(=N)N)NC(=O)[C@H](CC(N)=O)NC(=O)[C@H](CC(=O)O)NC(=O)[C@H](CCCNC(=N)N)NC(=O)CNC(=O)CNC(=O)CNC(=S)Nc1ccc(CC2CN(CC(=O)O)CCN(CC(=O)O)CCN2CC(=O)O)cc1)C(=O)N[C@@H](CC(N)=O)C(=O)N[C@H](C(=O)NCC(=O)NCC(=O)N[C@H](C(=O)N[C@@H](Cc1ccc(O)cc1)C(=O)N[C@@H](Cc1ccccc1)C(=O)N[C@@H](CC(C)C)C(=O)N[C@H](C(=O)N[C@H](C(=O)N[C@@H](CCCNC(=N)N)C(=O)N[C@@H](CCC(N)=O)C(=O)O)[C@@H](C)O)[C@@H](C)O)[C@@H](C)O)C(C)C (single isomer, unassigned) [Al[^18F]F-GP2633]
logP [1]: -2.42 ± 0.09
tissue to tissue ratio at 1 h ([2]; HepG2 tumor / kidneys, read-out: Tumor-to-kidneys (T/K) uptake ratio): 0.09 ± 0.01
tissue to tissue ratio at 0.5 h [2, 5]: 1.77 ± 0.2
tissue to tissue ratio at 1 h [2, 5]: 2 ± 0.18
tissue to tissue ratio at 2 h [2, 5]: 1.28 ± 0.25
tissue to tissue ratio at 0.5 h [2, 6]: 9.11 ± 0.79
tissue to tissue ratio at 1 h [2, 6]: 12.2 ± 0.62
tissue to tissue ratio at 2 h [2, 6]: 6.2 ± 1.8
tissue uptake at 0.5 h ([2]; bone, read-out: Bone uptake): 0.47 %ID/g
tissue uptake at 1 h ([2]; bone, read-out: Bone uptake): 0.43 %ID/g
tissue uptake at 2 h ([2]; bone, read-out: Bone uptake): 0.55 %ID/g
tissue uptake at 0.5 h ([2]; brain, read-out: Brain uptake): 0.1 %ID/g
tissue uptake at 1 h ([2]; brain, read-out: Brain uptake): 0.11 %ID/g
tissue uptake at 2 h ([2]; brain, read-out: Brain uptake): 0.22 %ID/g
tissue uptake at 0.5 h ([2]; heart, read-out: Heart uptake): 1.04 %ID/g
tissue uptake at 1 h ([2]; heart, read-out: Heart uptake): 0.91 %ID/g
tissue uptake at 2 h ([2]; heart, read-out: Heart uptake): 0.37 %ID/g
tissue uptake at 0.5 h [2, 7]: 1.09 %ID/g
tissue uptake at 1 h [2, 7]: 1.3 %ID/g
tissue uptake at 2 h [2, 7]: 0.46 %ID/g
tissue uptake at 0.5 h [2, 8]: 3.13 %ID/g
tissue uptake at 1 h [2, 8]: 3.37 %ID/g
tissue uptake at 2 h [2, 8]: 1.3 %ID/g
tissue uptake at 0.5 h [2, 9]: 39.4 %ID/g
tissue uptake at 1 h [2, 9]: 36.9 %ID/g
tissue uptake at 2 h [2, 9]: 29.3 %ID/g
tissue uptake at 0.5 h ([2]; liver, read-out: Liver uptake): 1.8 %ID/g
tissue uptake at 1 h ([2]; liver, read-out: Liver uptake): 1.7 %ID/g
tissue uptake at 2 h ([2]; liver, read-out: Liver uptake): 1.04 %ID/g
tissue uptake at 0.5 h ([2]; lung, read-out: Lung uptake): 0.69 %ID/g
tissue uptake at 1 h ([2]; lung, read-out: Lung uptake): 0.59 %ID/g
tissue uptake at 2 h ([2]; lung, read-out: Lung uptake): 0.34 %ID/g
tissue uptake at 0.5 h [2, 10]: 0.35 %ID/g
tissue uptake at 1 h [2, 10]: 0.28 %ID/g
tissue uptake at 2 h [2, 10]: 0.22 %ID/g
tissue to tissue ratio at 0.5 h [2, 11]: 0.08 ± 0.01
tissue to tissue ratio at 2 h [2, 11]: 0.04 ± 0.01
Tumor-to-kidneys (T/K) uptake ratio ([3]; 30 min): 0.08 ± 0.01
Tumor-to-liver (T/L) uptake ratio ([3]; 30 min): 1.77 ±0.20
Tumor-to-muscle (T/M) uptake ratio ([3]; 30 min): 9.11±0.79
Tumor-to-kidneys (T/K) uptake ratio ([3]; 60 min): 0.09±0.01
Tumor-to-liver (T/L) uptake ratio ([3]; 60 min): 2.00±0.18
Tumor-to-muscle (T/M) uptake ratio ([3]; 60 min): 12.17±0.62
Tumor-to-kidneys (T/K) uptake ratio ([3]; 120 min): 0.04 ± 0.01
Tumor-to-liver (T/L) uptake ratio ([3]; 120 min): 1.28±0.25
Tumor-to-muscle (T/M) uptake ratio ([3]; 120 min): 6.20±1.80
Kidneys uptake ([3]; 30 min, PET): 39.40±0.98 % ID/g
Liver uptake ([3]; 30 min, PET): 1.80±0.36 % ID/g
Tumor uptake ([3]; 30 min, PET): 3.13±0.31 % ID/g
Kidneys uptake ([3]; 60 min, PET): 36.86±2.05 % ID/g
Liver uptake ([3]; 60 min, PET): 1.70±0.26 % ID/g
Tumor uptake ([3]; 60 min, PET): 3.37±0.35 % ID/g
Kidneys uptake ([3]; 120 min, PET): 29.27 ± 3.31 % ID/g
Liver uptake ([3]; 120 min, PET): 1.04 ± 0.20 % ID/g
Tumor uptake ([3]; 120 min, PET): 1.30±0.17 % ID/g
defluorination in vivo (from low bone uptake) ([3]; PET, bone uptake): did not occur
clearance / excretion route from the mouse body ([3]; as visualized by PET images): predominantly through the renal system
tissue uptake at 1 h ([4]; HepG2 tumor, read-out: HepG2 Tumor uptake, ex vivo biodistribution): 1.96 ± 0.29 %ID/g
tissue uptake at 1 h ([4]; blood, read-out: Blood uptake, ex vivo biodistribution): 0.45 ± 0.12 %ID/g
tissue uptake at 1 h ([4]; bone, read-out: Bone uptake, ex vivo biodistribution): 0.36 ± 0.08 %ID/g
tissue uptake at 1 h ([4]; brain, read-out: Brain uptake, ex vivo biodistribution): 0.12 ± 0.12 %ID/g
tissue uptake at 1 h ([4]; heart, read-out: Heart uptake, ex vivo biodistribution): 0.39 ± 0.27 %ID/g
tissue uptake at 1 h ([4]; kidneys, read-out: Kidneys uptake, ex vivo biodistribution): 37 ± 4.7 %ID/g
tissue uptake at 1 h ([4]; liver, read-out: Liver uptake, ex vivo biodistribution): 0.97 ± 0.07 %ID/g
tissue uptake at 1 h ([4]; muscle, read-out: Muscle uptake, ex vivo biodistribution): 0.31 ± 0.05 %ID/g
HepG2 Tumor uptake, ex vivo biodistribution (HepG2 tumor): 1.96±0.29 % ID/g
Liver uptake, ex vivo biodistribution (HepG2 tumor): 0.97±0.07 % ID/g
